Measurements: patent US8802664B2 (Bioproject, priority 2010, dated 2014)

Target: T1, human H4 receptor (Homo sapiens, UniProt Q9H3N8)
T1 construct: expressed in transfected cells
Experiment: [3H]Histamine binding on membranes of CHO cells stably expressing human H4 receptor
Details: not given
Outline: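 CHO-hH4 membranes 20 μg/well; buffer 50 mM Tris/HCl, 0.5 mM EDTA, pH 7.4; NSB: 10 μM JNJ 7777120 (BP1.2404); GF/B filtration (PEI-presoaked), 3 ice-cold washes; scintillation counting.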

Row | SMILES | Ki or IC50 activity class
1 | CN1CCC(OC(c2cccc(C#CCCNC(=N)NC(=O)OC(C)(C)C)c2)c2nc3ccccc3[nH]2)CC1 (stereo not drawn) [Example 307, N-tert-butoxycarbonyl-N′-(4-{3-[(1H-benzimidazol-2-yl)(1-methylpiperidin-4-yloxy)methyl]phenyl}but-3-ynyl)guanidine] | < 1000 nM
2 | CN1CCC(OC(c2cccc(CCCCNC(=N)N)c2)c2nc3ccccc3[nH]2)CC1 (stereo not drawn) [Example 308, N-(4-{3-[(1H-benzimidazol-2-yl)(1-methylpiperidin-4-yloxy)methyl]phenyl}butyl)guanidine] | < 300 nM
3 | CN1CCC(OC(c2cccc(CCCCNC(=N)NC(=O)OC(C)(C)C)c2)c2nc3ccccc3[nH]2)CC1 (stereo not drawn) [Example 309, N-tert-butoxycarbonyl-N′-(4-{3-[(1H-benzimidazol-2-yl)(1-methylpiperidin-4-yloxy)methyl]phenyl}butyl)guanidine] | < 300 nM
4 | CN1CCC(OC(c2cccc(CCCNC(=O)OC(C)(C)C)c2)c2nc3ccccc3[nH]2)CC1 (stereo not drawn) [Example 313, N-tert-butoxycarbonyl-N′-(3-{3-[(1H-benzimidazol-2-yl)(1-methylpiperidin-4-yloxy)methyl]phenyl}propyl)amine] | < 300 nM
5 | CN1CCC(OC(c2cccc(OCCCCn3nccn3)c2)c2nc3ccccc3s2)CC1 (stereo not drawn) [Example 315, 2-{(1-methylpiperidin-4-yloxy)[3-(4-[1,2,3]triazol-2-yl-butoxy)phenyl]methyl}benzothiazole] | < 1000 nM
6 | CN1CCC(OC(c2cccc(OCCCCn3cncn3)c2)c2nc3ccccc3s2)CC1 (stereo not drawn) [Example 316, 2-{(1-methylpiperidin-4-yloxy)[3-(4-[1,2,4]triazol-1-yl-butoxy)phenyl]methyl}benzothiazole] | < 300 nM
7 | CN1CCC(OC(c2cccc(SCCNC3=NCCN3)c2)c2nc3ccccc3[nH]2)CC1 (stereo not drawn) [Example 317, (2-{3-[(1H-benzimidazol-2-yl)(1-methylpiperidin-4-yloxy)methyl]-phenylsulfanyl}ethyl)(4,5-dihydro-1H-imidazol-2-yl)amine] | < 1000 nM
8 | CN1CCC(OC(c2cccc(OCCCCN3CCOCC3)c2)c2nc3ccccc3s2)CC1 (stereo not drawn) [Example 322, 2-{(1-methylpiperidin-4-yloxy)[3-(4-morpholin-4-yl-butoxy)phenyl]methyl}benzothiazole] | < 1000 nM
9 | CN1CCC(OC(c2cccc(SCCCCN)c2)c2nc3ccccc3[nH]2)CC1 (stereo not drawn) [Example 326, 4-{3-[(1H-benzimidazol-2-yl)(1-methylpiperidin-4-yloxy)methyl]phenylsulfanyl}butylamine] | < 30 nM
10 | CN1CCC(OC(c2cccc(OCCCCN)c2)c2nc3ccccc3[nH]2)CC1 (stereo not drawn) [Example 331, 4-{3-[(1H-benzimidazol-2-yl)(1-methylpiperidin-4-yloxy)methyl]phenoxy}butylamine] | < 300 nM
11 | CN1CCC(OC(c2cccc(OCCCCN3CCOCC3)c2)c2nc3ccccc3[nH]2)CC1 (stereo not drawn) [Example 332, 2-{(1-methylpiperidin-4-yloxy)[3-(4-morpholin-4-yl-butoxy)phenyl]methyl}-1H-benzimidazole] | < 1000 nM

The remaining lines, values ahead:

Row | Ki or IC50 activity class | SMILES
12 | < 30 nM | CN1CCC(OC(c2cccc(OCCCCN)c2)c2nc3ccccc3s2)CC1 (stereo not drawn) [Example 301, 4-{3-[benzothiazol-2-yl(1-methylpiperidin-4-yloxy)methyl]phenoxy}butylamine]
13 | < 30 nM | CN1CCC(OC(c2cccc(SCCNC(=N)N)c2)c2nc3ccccc3s2)CC1 (stereo not drawn) [Example 302, N-(2-{3-[benzothiazol-2-yl(1-methylpiperidin-4-yloxy)methyl]phenylsulfanyl}ethyl)guanidine]
14 | < 300 nM | CN1CCC(OC(c2cccc(CCCN)c2)c2nc3ccccc3[nH]2)CC1 (stereo not drawn) [Example 303, 3-{3-[(1H-benzimidazol-2-yl)(1-methylpiperidin-4-yloxy)methyl]phenyl}propylamine]
15 | < 30 nM | CN1CCC(OC(c2cccc(SCCCCCN)c2)c2nc3ccccc3s2)CC1 (stereo not drawn) [Example 305, 5-{3-[benzothiazol-2-yl(1-methylpiperidin-4-yloxy)methyl]phenylsulfanyl}pentylamine]
16 | < 300 nM | CN1CCC(OC(c2cccc(CCc3cn(C)cn3)c2)c2nc3ccccc3s2)CC1 (stereo not drawn) [Example 306, 2-[{3-[2-(1-methyl-1H-imidazol-4-yl)ethyl]phenyl}(1-methylpiperidin-4-yloxy)methyl]benzothiazole]
17 | < 300 nM | CN1CCC(OC(c2cccc(OCCCN)c2)c2nc3ccccc3s2)CC1 (stereo not drawn) [Example 311, 3-{3-[benzothiazol-2-yl(1-methylpiperidin-4-yloxy)methyl]phenoxy}propylamine]
18 | < 300 nM | CN1CCC(OC(c2cccc(CCCCCN)c2)c2nc3ccccc3[nH]2)CC1 (stereo not drawn) [Example 312, 5-{3-[(1H-benzimidazol-2-yl)(1-methylpiperidin-4-yloxy)methyl]phenyl}pentylamine]
19 | < 30 nM | CN1CCC(OC(c2cccc(SCCCN)c2)c2nc3ccccc3s2)CC1 (stereo not drawn) [Example 314, 3-{3-[benzothiazol-2-yl(1-methylpiperidin-4-yloxy)methyl]phenylsulfanyl}propylamine]
20 | < 30 nM | CN1CCC(OC(c2cccc(C#CCCCCN)c2)c2nc3ccccc3s2)CC1 (stereo not drawn) [Example 319, 6-{3-[benzothiazol-2-yl(1-methylpiperidin-4-yloxy)methyl]phenyl}hex-5-ynylamine]
21 | < 30 nM | CN1CCC(OC(c2cccc(CCCNC(=N)N)c2)c2nc3ccccc3[nH]2)CC1 (stereo not drawn) [Example 320, N-(3-{3-[(1H-benzimidazol-2-yl)(1-methylpiperidin-4-yloxy)methyl]phenyl}propyl)guanidine]
22 | < 1000 nM | CN1CCC(OC(c2cccc(N3CCCC3CO)c2)c2nc3ccccc3s2)CC1 (stereo not drawn) [Example 323, (1-{3-[benzothiazol-2-yl(1-methylpiperidin-4-yloxy)methyl]phenyl}pyrrolidin-2-yl)methanol]
23 | < 300 nM | CN1CCC(OC(c2cccc(N3CCCC3CO)c2)c2nc3ccccc3s2)CC1 (stereo not drawn) [Example 324, (1-{3-[benzothiazol-2-yl(1-methylpiperidin-4-yloxy)methyl]phenyl}pyrrolidin-2-yl)methanol]
24 | < 30 nM | CN1CCC(OC(c2cccc(CCCCCCN)c2)c2nc3ccccc3s2)CC1 (stereo not drawn) [Example 325, 6-{3-[benzothiazol-2-yl(1-methylpiperidin-4-yloxy)methyl]phenyl}hexylamine]
25 | < 30 nM | CN1CCC(OC(c2cccc(OCCN3CCN(C(=O)OC(C)(C)C)CC3)c2)c2nc3ccccc3s2)CC1 (stereo not drawn) [Example 328, 4-(2-{3-[benzothiazol-2-yl(1-methylpiperidin-4-yloxy)methyl]phenoxy}ethyl)piperazine-1-carboxylic acid tert-butyl ester]
26 | < 300 nM | CN1CCC(OC(c2cccc(OCCN3CCNCC3)c2)c2nc3ccccc3s2)CC1 (stereo not drawn) [Example 330, 2-{(1-methylpiperidin-4-yloxy)[3-(2-piperazin-1-yl-ethoxy)phenyl]methyl}benzothiazole]

Same assay, conditions: human H4 receptor; evaluated in the GTPγ[35S] assay or in the [3H]histamine binding assay (not stated which per compound); Ki or IC50 class

Row | Ki or IC50 activity class | SMILES
27 | < 30 nM | CN1CCC(OC(c2cccc(CCCNC(=N)N)c2)c2nc3ccccc3[nH]2)CC1 (stereo not drawn) [Example 321, N-(3-{3-[(1H-benzimidazol-2-yl)(1-methylpiperidin-4-yloxy)methyl]phenyl}propyl)guanidine]
